According to US20190100534A1, “Cephem Compounds with Latent Reactive Groups” (Gladius Pharmaceuticals, Inc., priority 2017, published 2019):

Tests used:
Assay type in all cases: cell-based
[1] = tested on: Isogenic E. coli J58 strain carrying KPC-3; assay: MIC determination, isogenic E. coli strains; settings: for MIC: Escherichia coli, 18 h, read-out: Mimimum Inhibitory Concentrations, KPC-3
In short: (§1)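 Broth microdilution in cation-adjusted Mueller-Hinton broth with 20 μM apo-transferrin, compound at 64 down to […], inoculum set to 0.5 McFarland. E. coli J53 transformed with pBC-SK(+) carrying the synthetic beta-lactamase gene was used. Plates were incubated 18 h at 37 °C; MIC is the lowest concentration giving a clear well.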

[2] = tested on: Isogenic E. coli J58 strain carrying KPC-2; assay: MIC determination, isogenic E. coli strains; settings: for MIC: Escherichia coli, 18 h, read-out: Mimimum Inhibitory Concentrations, KPC-2
In short: as §1

[3] = tested on: Isogenic E. coli J58 strain carrying SHV-1; assay: MIC determination, isogenic E. coli strains; settings: for MIC: Escherichia coli, 18 h, read-out: Mimimum Inhibitory Concentrations, SHV-1
In short: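 MIC is the lowest compound concentration leaving a transparent well after overnight (18 h) incubation at 37 °C. The test strain was E. coli J53 expressing plasmid-borne SHV-1 beta-lactamase from pBC-SK(+), adjusted to 0.5 McFarland. Compounds were twofold serially diluted, starting at 64 μg/mL, in CAMH broth supplemented with 20 μM apo-transferrin.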

[4] = tested on: Isogenic E. coli J58 strain carrying VIM-2; assay: MIC determination, isogenic E. coli strains; settings: for MIC: Escherichia coli, 18 h, read-out: Mimimum Inhibitory Concentrations, VIM-2
In short: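 E. coli J53 transformed with pBC-SK(+) plasmid carrying synthesized VIM-2 gene, grown in LB to OD600 >0.1, adjusted to 0.08–0.1 OD600 in CAMH broth.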

[5] = tested on: Pseudomonas aeruginosa PA-RR-(G7305586); assay: MIC determination; settings: PA-RR-(G7305586), CAMH broth, 20 μM Apo-Transferrin, 37° C., 18 hours; for MIC: Pseudomonas aeruginosa, read-out: Minimum Inhibitory Concentrations, PA-RR-(G7305586)
In short: (§2)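 Broth microdilution in cation-adjusted Mueller-Hinton broth with 20 μM apo-transferrin, two-fold compound series from 64 μg/mL, inoculum adjusted to 0.5 McFarland from 4-5 h LB cultures. Plates incubated 18 h at 37 °C. MIC taken as lowest concentration leaving a clear well.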

[6] = tested on: Pseudomonas aeruginosa PA-RR-(980151052); assay: MIC determination; settings: PA-RR-(980151052), CAMH broth, 20 μM Apo-Transferrin, 37° C., 18 hours; for MIC: Pseudomonas aeruginosa, read-out: Minimum Inhibitory Concentrations, PA-RR-(980151052)
In short: as §2

[7] = tested on: Pseudomonas aeruginosa (PA); assay: MIC determination; settings: PA, CAMH broth, 20 μM Apo-Transferrin, 37° C., 18 hours; for MIC: Pseudomonas aeruginosa, read-out: Minimum Inhibitory Concentrations, PA
In short: as §2

[8] = tested on: Pseudomonas aeruginosa PA-RR-(purple Fre D); assay: MIC determination; settings: CAMH broth, 20 μM Apo-Transferrin, 37° C., 18 hours; for MIC: Pseudomonas aeruginosa, read-out: Minimum Inhibitory Concentrations, PA-RR-(purple Fre D)
In short: as §2

[9] = tested on: Pseudomonas aeruginosa PA (RR-2); assay: MIC determination; settings: PA (RR-2), CAMH broth, 20 μM Apo-Transferrin, 37° C., 18 hours; for MIC: Pseudomonas aeruginosa, read-out: Minimum Inhibitory Concentrations, PA (RR-2)
In short: as §2

[10] = tested on: Pseudomonas aeruginosa PA-RR-(G7304100); assay: MIC determination; settings: PA-RR-(G7304100), CAMH broth, 20 μM Apo-Transferrin, 37° C., 18 hours; for MIC: Pseudomonas aeruginosa, read-out: Minimum Inhibitory Concentrations, PA-RR-(G7304100)
In short: as §2

[11] = tested on: Pseudomonas aeruginosa PA-RR-(G8062859); assay: MIC determination; settings: PA-RR-(G8062859), CAMH broth, 20 μM Apo-Transferrin, 37° C., 18 hours; for MIC: Pseudomonas aeruginosa, read-out: Minimum Inhibitory Concentrations, PA-RR-(G8062859)
In short: as §2

[12] = tested on: Pseudomonas aeruginosa PA (URMC-3); assay: MIC determination; settings: PA (URMC-3), CAMH broth, 20 μM Apo-Transferrin, 37° C., 18 hours; for MIC: Pseudomonas aeruginosa, read-out: Minimum Inhibitory Concentrations, PA (URMC-3)
In short: as §2

[13] = tested on: Pseudomonas aeruginosa PA (RR-1); assay: MIC determination; settings: PA (RR-1), CAMH broth, 20 μM Apo-Transferrin, 37° C., 18 hours; for MIC: Pseudomonas aeruginosa, read-out: Minimum Inhibitory Concentrations, PA (RR-1)
In short: as §2

[14] = tested on: Pseudomonas aeruginosa PA-RR-(G7294437); assay: MIC determination; settings: PA-RR-(G7294437), CAMH broth, 20 μM Apo-Transferrin, 37° C., 18 hours; for MIC: Pseudomonas aeruginosa, read-out: Minimum Inhibitory Concentrations, PA-RR-(G7294437)
In short: as §2

[15] = tested on: Pseudomonas aeruginosa PA (URMC-2); assay: MIC determination; settings: PA (URMC-2), CAMH broth, 20 μM Apo-Transferrin, 37° C., 18 hours; for MIC: Pseudomonas aeruginosa, read-out: Minimum Inhibitory Concentrations, PA (URMC-2)
In short: as §2

[16] = tested on: Pseudomonas aeruginosa PA-RR-(98023895); assay: MIC determination; settings: PA-RR-(98023895), CAMH broth, 20 μM Apo-Transferrin, 37° C., 18 hours; for MIC: Pseudomonas aeruginosa, read-out: Minimum Inhibitory Concentrations, PA-RR-(98023895)
In short: as §2

[17] = tested on: Isogenic E. coli J58 strain carrying NDM-1; assay: MIC determination, isogenic E. coli strains; settings: for MIC: Escherichia coli, 18 h, read-out: Mimimum Inhibitory Concentrations, NDM-1
In short: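 E. coli J53 transformed with a pBC-SK(+) plasmid encoding NDM-1 was adjusted to 0.08-0.1 OD600. It was grown 18 h at 37° C in CAMH broth containing 20 μM apo-transferrin with twofold compound dilutions from 64 μg/mL. MIC was taken as the lowest concentration giving a transparent well.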

CC(C)(O/N=C(\C(=O)N[C@@H]1C(=O)N2C(C(=O)O)=C(C=Cc3ccc(C[n+]4ccc5cc(O)c(O)cc5c4)cc3)CS[C@H]12)c1csc(N)n1)C(=O)O (mixture of isomers) [Compound 435, 2-(4-((E/Z)-2-((6R,7R)-7-((Z)-2-(2-aminothiazol-4-yl)-2-(((2-carboxypropan-2-yl)oxy)imino)acetamido)-2-carboxy-8-oxo-5-thia-1-azabicyclo[4.2.0]oct-2-en-3-yl)vinyl)benzyl)-6,7-dihydroxyisoquinolin-2-ium]
Mimimum Inhibitory Concentrations, KPC-3 ([1]; isogenic E. coli strain, KPC-3, CAMH broth, 20 μM Apo-Transferrin, 37° C., 18 hours): 0.13 microgram/mL | Mimimum Inhibitory Concentrations, KPC-2 ([2]; isogenic E. coli strain, KPC-2, CAMH broth, 20 μM Apo-Transferrin, 37° C., 18 hours): 0.25 microgram/mL | Mimimum Inhibitory Concentrations, SHV-1 ([3]; isogenic E. coli strain, SHV-1, CAMH broth, 20 μM Apo-Transferrin, 37° C., 18 hours): 0.13 microgram/mL | Mimimum Inhibitory Concentrations, VIM-2 ([4]; isogenic E. coli strain, VIM-2, CAMH broth, 20 μM Apo-Transferrin, 37° C., 18 hours): ≤0.06 microgram/mL | MICs for an E. coli strain carrying the gene for carbapenemase VIM-1, in words ([4]; review of Tables 4-1 and 4-2): low microgram/mL MICs | Minimum Inhibitory Concentrations, PA-RR-(G7305586) [5]: 0.25 microgram/mL | Minimum Inhibitory Concentrations, PA-RR-(980151052) [6]: 0.13 microgram/mL | Minimum Inhibitory Concentrations, PA [7]: ≤0.06 microgram/mL | Minimum Inhibitory Concentrations, PA-RR-(purple Fre D) [8]: 0.5 microgram/mL | Minimum Inhibitory Concentrations, PA (RR-2) [9]: ≤0.06 microgram/mL | Minimum Inhibitory Concentrations, PA-RR-(G7304100) [10]: ≤0.06 microgram/mL | Minimum Inhibitory Concentrations, PA-RR-(G8062859) [11]: 0.5 microgram/mL | Minimum Inhibitory Concentrations, PA (URMC-3) [12]: ≤0.06 microgram/mL | Minimum Inhibitory Concentrations, PA (RR-1) [13]: 0.25 microgram/mL | Minimum Inhibitory Concentrations, PA-RR-(G7294437) [14]: ≤0.06 microgram/mL | Minimum Inhibitory Concentrations, PA (URMC-2) [15]: 0.25 microgram/mL | Minimum Inhibitory Concentrations, PA-RR-(98023895) [16]: 1 microgram/mL | Mimimum Inhibitory Concentrations, NDM-1 ([17]; isogenic E. coli strain, NDM-1, CAMH broth, 20 μM Apo-Transferrin, 37° C., 18 hours): 2 microgram/mL | MICs for an E. coli strain carrying the gene for NDM-1, in words ([17]; review of Tables 4-1 and 4-2): lower MICS compared to other compounds tested

CC(C)(O/N=C(\C(=O)N[C@@H]1C(=O)N2C(C(=O)O)=C(C=Cc3ccc(C[N+](C)(C)Cc4ccc(O)c(O)c4Cl)cc3)CS[C@H]12)c1csc(N)n1)C(=O)O (mixture of isomers) [Compound 434, N-(4-((E/Z)-2-((6R,7R)-7-((Z)-2-(2-aminothiazol-4-yl)-2-(((2-carboxypropan-2-yl)oxy)imino)acetamido)-2-carboxy-8-oxo-5-thia-1-azabicyclo[4.2.0]oct-2-en-3-yl)vinyl)benzyl)-1-(2-chloro-3,4-dihydroxyphenyl)-N,N-dimethylmethanaminium]
MIC [1]: 64 µg/mL | MIC [2]: 16 µg/mL | MIC [3]: 1 µg/mL | MIC [4]: 2 µg/mL | MIC [5]: 8 µg/mL | MIC [6]: 4 µg/mL | MIC [7]: 4 µg/mL | MIC [8]: 2 µg/mL | MIC [9]: 2 µg/mL | MIC [10]: 2 µg/mL | MIC [11]: 2 µg/mL | MIC [12]: 16 µg/mL | MIC [13]: 1 µg/mL | MIC [14]: 0.5 µg/mL | MIC [15]: 8 µg/mL | MIC [16]: 8 µg/mL | MIC [17]: > 64 µg/mL

Cn1c[n+](Cc2ccc(C=CC3=C(C(=O)O)N4C(=O)[C@@H](NC(=O)/C(=N\OC(C)(C)C(=O)O)c5csc(N)n5)[C@H]4SC3)cc2)cc1C(=O)Nc1ccc(O)c(O)c1 (mixture of isomers) [Compound 411, 3-(4-((E/Z)-2-((6R,7R)-7-((Z)-2-(2-aminothiazol-4-yl)-2-(((2-carboxypropan-2-yl)oxy)imino)acetamido)-2-carboxy-8-oxo-5-thia-1-azabicyclo[4.2.0]oct-2-en-3-yl)vinyl)benzyl)-5-((3,4-dihydroxyphenyl)carbamoyl)-1-methyl-1H-imidazol-3-ium]
MIC [1]: 8 µg/mL | MIC [2]: 32 µg/mL | MIC [3]: 4 µg/mL | MIC [4]: 2 µg/mL | MIC [5]: 16 µg/mL | MIC [6]: 8 µg/mL | MIC [7]: 8 µg/mL | MIC [8]: 2 µg/mL | MIC [9]: 4 µg/mL | MIC [10]: 1 µg/mL | MIC [11]: 2 µg/mL | MIC [12]: 0.5 µg/mL | MIC [13]: 4 µg/mL | MIC [14]: 1 µg/mL | MIC [15]: 4 µg/mL | MIC [16]: 8 µg/mL | MIC [17]: > 64 µg/mL

CC(C)(O/N=C(\C(=O)N[C@@H]1C(=O)N2C(C(=O)O)=C(C=Cc3ccc(C[n+]4cccc(-c5ccc(O)c(O)c5)c4)cc3)CS[C@H]12)c1csc(N)n1)C(=O)O (mixture of isomers) [Compound 413, 1-(4-((E/Z)-2-((6R,7R)-7-((Z)-2-(2-aminothiazol-4-yl)-2-(((2-carboxypropan-2-yl)oxy)imino)acetamido)-2-carboxy-8-oxo-5-thia-1-azabicyclo[4.2.0]oct-2-en-3 yl)vinyl)benzyl)-3-(3,4-dihydroxyphenyl)pyridin-1-ium]
MIC [1]: 4 µg/mL | MIC [2]: 8 µg/mL | MIC [3]: 2 µg/mL | MIC [4]: 0.5 µg/mL | MIC [5]: 8 µg/mL | MIC [6]: 4 µg/mL | MIC [7]: 4 µg/mL | MIC [8]: 2 µg/mL | MIC [9]: 2 µg/mL | MIC [10]: ≤ 0.06 µg/mL | MIC [11]: 2 µg/mL | MIC [12]: 0.13 µg/mL | MIC [13]: 4 µg/mL | MIC [14]: 1 µg/mL | MIC [15]: 4 µg/mL | MIC [16]: 4 µg/mL | MIC [17]: > 64 µg/mL
